Source: ChEMBL document CHEMBL1201862, “PubChem BioAssay data set” (2004)
Calls of active or inactive are those of the source.

What was measured:
[1] = biological target: T1, Tyrosine-protein phosphatase non-receptor type 7 (Homo sapiens, UniProt P35236); assay: inhibitors of human HePTP phosphatase, […], biochemical, absorbance, leukemia target (AID 521); type: functional
T1 sequence (P35236 whole entry): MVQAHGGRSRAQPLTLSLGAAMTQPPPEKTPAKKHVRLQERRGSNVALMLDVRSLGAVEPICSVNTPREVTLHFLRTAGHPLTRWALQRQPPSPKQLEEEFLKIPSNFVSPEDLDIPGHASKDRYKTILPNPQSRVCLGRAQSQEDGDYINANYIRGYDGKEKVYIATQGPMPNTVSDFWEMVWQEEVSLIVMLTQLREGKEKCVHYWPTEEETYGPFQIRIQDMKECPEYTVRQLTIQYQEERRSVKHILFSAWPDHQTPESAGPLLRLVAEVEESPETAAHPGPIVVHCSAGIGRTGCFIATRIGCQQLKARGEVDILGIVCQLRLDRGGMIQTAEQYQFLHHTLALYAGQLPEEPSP

[2] = Luminescence Cell-Based Dose Response to Identify Activators of 5'UTR Stem-Loop Driven Prion Protein mRNA Translation in H4-C Neuroglioblastoma Cells. [Related pubchem assays: 1829 (Project Summary), 1814 (Primary HTS)]; type: functional
[3] = Luminescence Cell-Based Dose Confirmation HTS to Identify Activators of 5'UTR Stem-Loop Driven Alpha-Synuclein mRNA Translation in H4 Neuroglioblastoma Cells. [Related pubchem assays: 1829 (Project Summary), 1814 (Primary HTS)]; type: functional
[4] = Luminescence Cell-Based Dose Response HTS to Identify Activators of Luciferase Translation or Activity in H4 […] Cells. [Related pubchem assays: 1829 (Project Summary), 1814 (Primary HTS)]; type: functional
[5] = Luminescence Cell-Based Dose Response to Identify Activators of Luciferase Translation or Activity in H4-C Neuroglioblastoma Cells. [Related pubchem assays: 1829 (Project Summary), 1814 (Primary HTS)]; type: functional
[6] = Luminescence Cell-Based Dose Confirmation to Identify Activators of 5'UTR Stem-Loop Driven Alpha-Synuclein mRNA Translation in H4 Neuroglioblastoma Cells. [Related pubchem assays: 1829 (Project Summary), 1814 (Primary HTS)]; type: functional
Genome polyprotein = Genome polyprotein (Hepatitis C virus, UniProt Q2Q167); assay: HCV core protein dimerization inhibitors, dose response, biochemical, TR-FRET (AID 2159); design: species or system Hepacivirus hominis;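 further: blocks dimerization of HCV core protein measured by TR-FRET between tagged core106 pairs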
Bcl-2-like protein 10 = Bcl-2-like protein 10 (Homo sapiens, UniProt Q9HD36); assay: displacers of TR3 peptide from Bcl-B, primary screen, selectivity assay for Bfl-1 inhibitor project, biochemical, fluorescence polarization, FITC-TR3 peptide (AID 748);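 further: fluorescence polarization from a fluorescein-labelled TR3 peptide binding purified Bcl-B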
Bcl-2-like protein 10, sequence (Q9HD36 whole entry): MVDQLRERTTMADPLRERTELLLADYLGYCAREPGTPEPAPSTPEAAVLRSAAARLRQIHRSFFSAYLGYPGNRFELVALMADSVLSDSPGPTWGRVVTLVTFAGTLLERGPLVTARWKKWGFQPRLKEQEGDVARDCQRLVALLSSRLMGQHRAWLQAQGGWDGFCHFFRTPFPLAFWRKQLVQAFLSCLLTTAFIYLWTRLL

[7] = A Cell Based Secondary Assay To Explore Cytotoxicity of Compounds that Sensitize Mycobacterium Tuberculosis to Beta-Lactam Antibiotics.; type: functional
[8] = biological target: T2, Induced myeloid leukemia cell differentiation protein Mcl-1 (Homo sapiens, UniProt Q07820); assay: MCL1-BIM BH3 interaction inhibitors, dose response, biochemical, fluorescence polarization, BIM-BH3 peptide, 1536-well (AID 2217)
T2 sequence (Q07820 whole entry): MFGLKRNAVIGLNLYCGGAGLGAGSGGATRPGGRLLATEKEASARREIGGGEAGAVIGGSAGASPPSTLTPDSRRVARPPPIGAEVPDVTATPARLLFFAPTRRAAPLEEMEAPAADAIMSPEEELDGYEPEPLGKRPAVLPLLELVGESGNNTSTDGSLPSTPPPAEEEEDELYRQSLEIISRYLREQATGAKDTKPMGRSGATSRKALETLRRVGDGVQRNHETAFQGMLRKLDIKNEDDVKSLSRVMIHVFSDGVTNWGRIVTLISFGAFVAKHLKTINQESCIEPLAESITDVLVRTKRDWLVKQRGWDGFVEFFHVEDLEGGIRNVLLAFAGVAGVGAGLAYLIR

Estrogen receptor beta [9] = biological target: T3, Estrogen receptor beta (Homo sapiens, UniProt Q92731);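 further: recombinant ER-beta bound to coactivator SRC1 peptide in presence of estradiol agonist; inhibitors block coactivator peptide binding and lower the FRET signal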
T3 sequence (Q92731 whole entry): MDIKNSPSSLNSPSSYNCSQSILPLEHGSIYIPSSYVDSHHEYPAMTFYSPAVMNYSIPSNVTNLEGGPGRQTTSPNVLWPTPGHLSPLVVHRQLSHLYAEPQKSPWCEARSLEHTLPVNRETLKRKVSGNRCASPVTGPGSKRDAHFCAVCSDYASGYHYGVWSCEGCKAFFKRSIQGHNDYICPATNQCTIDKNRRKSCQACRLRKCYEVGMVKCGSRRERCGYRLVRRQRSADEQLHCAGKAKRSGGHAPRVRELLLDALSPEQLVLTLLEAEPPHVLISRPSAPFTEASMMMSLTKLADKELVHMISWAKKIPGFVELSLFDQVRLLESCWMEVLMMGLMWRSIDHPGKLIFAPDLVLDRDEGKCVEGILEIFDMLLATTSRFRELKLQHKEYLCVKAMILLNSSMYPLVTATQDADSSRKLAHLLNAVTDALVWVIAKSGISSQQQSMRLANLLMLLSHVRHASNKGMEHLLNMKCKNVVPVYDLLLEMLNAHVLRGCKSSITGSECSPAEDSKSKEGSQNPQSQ

Estrogen receptor beta [10] = biological target: T3, Estrogen receptor beta; assay: ERβ–SRC-3 coactivator interaction inhibitors, confirmation, orthogonal assay, biochemical, ELISA, streptavidin-HRP readout (AID 1060)
Bcl-2-like protein 1 = Bcl-2-like protein 1 (Homo sapiens, UniProt Q07817); assay: BCL-XL inhibitors, dose response, selectivity assay for MCL1 inhibitor project, biochemical, fluorescence polarization, 1536-well (AID 2218)
Bcl-2-like protein 1, sequence (Q07817 whole entry): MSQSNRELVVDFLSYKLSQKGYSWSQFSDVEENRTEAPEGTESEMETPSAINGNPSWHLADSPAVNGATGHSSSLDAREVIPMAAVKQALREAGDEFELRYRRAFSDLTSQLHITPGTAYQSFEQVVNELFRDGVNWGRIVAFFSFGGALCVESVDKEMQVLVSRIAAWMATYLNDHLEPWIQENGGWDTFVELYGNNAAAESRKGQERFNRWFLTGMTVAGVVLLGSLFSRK

[11] = biological target: T2, Induced myeloid leukemia cell differentiation protein Mcl-1; type: functional
SUMO E1/E2 = SUMO E1/E2 (Homo sapiens, UniProt P63279+Q9UBE0+Q9UBT2); assay: SAR analysis of SUMOylation using HTRF in an in-Vitro dose response assay. [Related pubchem assays (depositor defined):AID2006, AID2011, AID2018, AID2069, AID2658]; type: functional
[12] = biological target: T4, Voltage-gated N-type calcium channel alpha-1B subunit/Amyloid beta A4 precursor protein-binding family A member 1 (Homo sapiens, UniProt Q00975+Q02410); assay: disruptors of Mint-PDZ/N-type channel peptide interaction – biochemical, HTRF, set 2, SAR follow-up (AID 434980); type: functional
T4 sequence (Q00975 whole entry): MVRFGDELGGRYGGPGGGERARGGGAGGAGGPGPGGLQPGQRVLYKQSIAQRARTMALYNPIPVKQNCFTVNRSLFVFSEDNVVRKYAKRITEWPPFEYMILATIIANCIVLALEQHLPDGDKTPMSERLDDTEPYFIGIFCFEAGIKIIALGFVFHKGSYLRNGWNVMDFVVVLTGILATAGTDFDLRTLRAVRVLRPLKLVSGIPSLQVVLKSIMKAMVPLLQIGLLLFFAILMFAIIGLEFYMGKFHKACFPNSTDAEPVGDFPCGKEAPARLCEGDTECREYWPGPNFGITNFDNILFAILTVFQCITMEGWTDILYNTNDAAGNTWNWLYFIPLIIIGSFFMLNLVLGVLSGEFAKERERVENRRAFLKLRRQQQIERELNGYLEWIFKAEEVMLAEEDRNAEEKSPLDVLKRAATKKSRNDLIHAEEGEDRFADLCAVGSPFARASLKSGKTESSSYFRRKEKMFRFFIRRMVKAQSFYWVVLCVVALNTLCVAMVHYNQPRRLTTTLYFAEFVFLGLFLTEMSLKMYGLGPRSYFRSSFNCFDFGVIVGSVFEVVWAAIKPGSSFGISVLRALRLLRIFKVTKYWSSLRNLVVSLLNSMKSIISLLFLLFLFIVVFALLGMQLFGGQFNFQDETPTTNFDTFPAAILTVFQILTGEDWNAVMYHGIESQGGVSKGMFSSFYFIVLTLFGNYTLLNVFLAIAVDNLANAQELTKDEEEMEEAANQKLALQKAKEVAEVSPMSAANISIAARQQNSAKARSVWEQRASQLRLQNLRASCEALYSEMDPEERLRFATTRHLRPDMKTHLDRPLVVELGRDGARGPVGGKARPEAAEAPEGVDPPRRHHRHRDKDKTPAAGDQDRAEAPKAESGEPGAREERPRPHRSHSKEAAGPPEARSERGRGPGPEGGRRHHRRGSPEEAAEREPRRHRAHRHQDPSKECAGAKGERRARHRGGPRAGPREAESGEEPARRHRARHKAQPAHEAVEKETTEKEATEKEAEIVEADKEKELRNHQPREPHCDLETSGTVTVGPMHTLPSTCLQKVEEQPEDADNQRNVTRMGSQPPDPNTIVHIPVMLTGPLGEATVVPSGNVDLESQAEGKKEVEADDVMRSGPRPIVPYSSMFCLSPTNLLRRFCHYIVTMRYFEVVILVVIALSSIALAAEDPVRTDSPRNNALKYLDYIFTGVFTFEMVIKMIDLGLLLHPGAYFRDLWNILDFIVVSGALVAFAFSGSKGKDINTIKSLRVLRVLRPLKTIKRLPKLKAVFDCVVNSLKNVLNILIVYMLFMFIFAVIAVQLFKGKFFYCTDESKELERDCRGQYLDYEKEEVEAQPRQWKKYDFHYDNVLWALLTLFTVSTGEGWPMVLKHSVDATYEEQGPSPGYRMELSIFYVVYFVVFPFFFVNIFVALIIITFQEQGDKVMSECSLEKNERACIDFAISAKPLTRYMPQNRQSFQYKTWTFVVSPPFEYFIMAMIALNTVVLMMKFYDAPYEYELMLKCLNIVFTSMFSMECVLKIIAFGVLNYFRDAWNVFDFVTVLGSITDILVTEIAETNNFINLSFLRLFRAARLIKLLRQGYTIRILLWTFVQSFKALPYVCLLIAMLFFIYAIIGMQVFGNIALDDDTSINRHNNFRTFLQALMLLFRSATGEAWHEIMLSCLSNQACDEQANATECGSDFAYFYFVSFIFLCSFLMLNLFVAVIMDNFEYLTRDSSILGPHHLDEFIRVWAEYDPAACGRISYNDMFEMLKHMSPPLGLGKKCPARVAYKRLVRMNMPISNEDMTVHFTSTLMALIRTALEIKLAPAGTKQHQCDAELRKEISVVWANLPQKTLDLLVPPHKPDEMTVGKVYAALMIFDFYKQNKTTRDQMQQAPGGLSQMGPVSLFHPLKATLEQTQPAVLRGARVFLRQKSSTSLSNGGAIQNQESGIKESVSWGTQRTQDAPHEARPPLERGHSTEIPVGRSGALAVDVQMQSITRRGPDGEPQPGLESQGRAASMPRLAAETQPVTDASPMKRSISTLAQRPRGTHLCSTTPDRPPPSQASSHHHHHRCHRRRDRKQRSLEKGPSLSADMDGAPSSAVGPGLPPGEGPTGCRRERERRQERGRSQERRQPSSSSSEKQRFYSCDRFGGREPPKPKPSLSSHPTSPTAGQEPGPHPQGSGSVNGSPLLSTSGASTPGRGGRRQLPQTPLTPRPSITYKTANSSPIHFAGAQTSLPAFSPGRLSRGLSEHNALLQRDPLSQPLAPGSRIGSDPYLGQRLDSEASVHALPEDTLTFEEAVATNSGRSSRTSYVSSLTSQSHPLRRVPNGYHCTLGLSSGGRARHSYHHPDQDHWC
T4 sequence (Q02410 whole entry): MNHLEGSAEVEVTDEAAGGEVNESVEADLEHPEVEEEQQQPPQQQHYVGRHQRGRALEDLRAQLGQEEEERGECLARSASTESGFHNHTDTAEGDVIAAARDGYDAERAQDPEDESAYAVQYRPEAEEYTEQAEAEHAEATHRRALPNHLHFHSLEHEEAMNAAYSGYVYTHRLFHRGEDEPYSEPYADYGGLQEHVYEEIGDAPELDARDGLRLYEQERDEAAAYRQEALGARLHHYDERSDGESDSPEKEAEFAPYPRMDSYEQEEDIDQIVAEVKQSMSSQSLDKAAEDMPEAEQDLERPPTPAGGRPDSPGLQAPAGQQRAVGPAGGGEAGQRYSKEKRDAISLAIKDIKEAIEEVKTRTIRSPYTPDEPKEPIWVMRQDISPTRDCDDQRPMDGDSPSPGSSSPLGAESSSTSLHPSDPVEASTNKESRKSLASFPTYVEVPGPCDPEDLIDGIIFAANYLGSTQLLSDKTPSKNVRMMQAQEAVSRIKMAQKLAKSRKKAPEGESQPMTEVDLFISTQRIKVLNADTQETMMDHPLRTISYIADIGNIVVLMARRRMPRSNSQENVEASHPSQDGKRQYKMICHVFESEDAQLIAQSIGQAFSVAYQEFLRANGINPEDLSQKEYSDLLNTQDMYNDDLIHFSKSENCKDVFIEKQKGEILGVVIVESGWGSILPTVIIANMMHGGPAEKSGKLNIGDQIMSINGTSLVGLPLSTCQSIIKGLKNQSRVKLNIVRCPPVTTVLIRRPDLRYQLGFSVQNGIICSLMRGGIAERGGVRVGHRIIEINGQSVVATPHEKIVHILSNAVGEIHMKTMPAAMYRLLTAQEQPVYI

[13] = biological target: T4, Voltage-gated N-type calcium channel alpha-1B subunit/Amyloid beta A4 precursor protein-binding family A member 1; assay: disruptors of Mint-PDZ/N-type channel peptide interaction – biochemical, HTRF, SAR follow-up (AID 2489); type: functional
[14] = inhibitors of firefly luciferase expression or activity, dose response, H4 neuroglioma cells, luminescence (AID 1990); type: functional, cell-based
[15] = Luminescence Cell-Based Dose Response HTS to Identify Inhibitors of 5'UTR Stem-Loop Driven Prion Protein mRNA Translation in H4 Neuroglioblastoma Cells. [Related pubchem assays: 1827 (Project Summary), 1813 (Primary HTS)]; type: functional
[16] = inhibitors of SNCA 5'UTR-driven reporter translation, confirmation, H4 neuroglioma cells, luminescence (AID 1988); type: functional, cell-based
[17] = A High Throughput Confirmatory Assay used to Identify Novel Compounds that Inhibit Mycobacterium Tuberculosis in the absence of Glycerol.; type: functional
[18] = microbe, parasite or virus in culture; type: functional; conditions: Mycobacterium tuberculosis
[19] = biological target: T5, Heat shock factor protein 1 (Mus musculus, UniProt P38532); assay: inhibition of MG132-induced HSE-luciferase signal, confirmation, cell-based, NIH3T3, luminescence, dose retest (AID 2382); type: functional;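 further: NIH3T3 fibroblasts with HSF1-driven luciferase reporter stressed by proteasome inhibitor MG132; luminescence from HSF1-driven luciferase expression after 8 hours of MG132 stress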
T5 sequence (P38532 whole entry): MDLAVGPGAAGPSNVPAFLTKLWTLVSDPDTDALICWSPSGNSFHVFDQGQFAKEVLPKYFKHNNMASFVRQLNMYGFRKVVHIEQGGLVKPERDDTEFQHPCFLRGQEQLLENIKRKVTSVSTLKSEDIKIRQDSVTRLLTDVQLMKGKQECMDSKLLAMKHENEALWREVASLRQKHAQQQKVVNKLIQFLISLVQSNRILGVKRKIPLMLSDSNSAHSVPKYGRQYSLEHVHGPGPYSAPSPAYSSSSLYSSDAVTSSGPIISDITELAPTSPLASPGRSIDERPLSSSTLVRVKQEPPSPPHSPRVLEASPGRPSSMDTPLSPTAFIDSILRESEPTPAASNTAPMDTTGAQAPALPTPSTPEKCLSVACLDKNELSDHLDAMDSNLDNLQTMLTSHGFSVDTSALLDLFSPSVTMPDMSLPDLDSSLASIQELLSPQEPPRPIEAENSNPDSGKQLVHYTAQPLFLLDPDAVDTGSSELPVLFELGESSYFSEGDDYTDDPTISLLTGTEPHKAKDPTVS

Prothrombin = Prothrombin (Homo sapiens, UniProt P00734); assay: Thrombin 1536 HTS Dose Response Confirmation. [Related pubchem assays: 1046 (Thrombin 1536 HTS; hits were confirmed in this assay)]; type: functional
[20] = biological target: Heat shock protein HSP 90-alpha (Homo sapiens, UniProt P07900); assay: Luminescence-based dose response biochemical high throughput screening assay for inhibitors of the Heat Shock Protein 90 (HSP90). [Related pubchem assays: 1831 (Summary AID.), 1846 (Confirmation screen.), 1789 (Primary screen.)]
[21] = biological target: T6, Microphthalmia-associated transcription factor (Homo sapiens, UniProt O75030); assay: TRPM1 promoter luciferase signal decrease, dose response, MITF inhibitor project, cell-based, SK-MEL-5, cherry-picked, set 3 (AID 493073); type: functional
T6 sequence (O75030 whole entry): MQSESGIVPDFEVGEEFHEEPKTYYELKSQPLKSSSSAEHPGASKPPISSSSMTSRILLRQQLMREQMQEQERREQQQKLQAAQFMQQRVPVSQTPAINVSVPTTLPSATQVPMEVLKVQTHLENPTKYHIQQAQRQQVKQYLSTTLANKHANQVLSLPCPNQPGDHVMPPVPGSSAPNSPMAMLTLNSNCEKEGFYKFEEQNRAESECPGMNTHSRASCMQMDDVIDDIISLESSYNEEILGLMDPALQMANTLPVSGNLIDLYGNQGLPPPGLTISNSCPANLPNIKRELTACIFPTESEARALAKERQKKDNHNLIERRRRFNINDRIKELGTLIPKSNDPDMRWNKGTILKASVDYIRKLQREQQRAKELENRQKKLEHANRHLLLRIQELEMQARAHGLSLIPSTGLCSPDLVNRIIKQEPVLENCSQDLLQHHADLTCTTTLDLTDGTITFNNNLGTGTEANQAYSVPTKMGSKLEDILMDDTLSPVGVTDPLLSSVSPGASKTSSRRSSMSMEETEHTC

Mucolipin-3 = Mucolipin-3 (Homo sapiens, UniProt Q8TDD5); assay: Dose response cell-based high-throughput screening assay for agonists of the transient receptor potential channel ML3 (TRPML3). [Related pubchem assays: 1526, 1424, 1448 ]; type: functional
Mucolipin-3, sequence (Q8TDD5 whole entry): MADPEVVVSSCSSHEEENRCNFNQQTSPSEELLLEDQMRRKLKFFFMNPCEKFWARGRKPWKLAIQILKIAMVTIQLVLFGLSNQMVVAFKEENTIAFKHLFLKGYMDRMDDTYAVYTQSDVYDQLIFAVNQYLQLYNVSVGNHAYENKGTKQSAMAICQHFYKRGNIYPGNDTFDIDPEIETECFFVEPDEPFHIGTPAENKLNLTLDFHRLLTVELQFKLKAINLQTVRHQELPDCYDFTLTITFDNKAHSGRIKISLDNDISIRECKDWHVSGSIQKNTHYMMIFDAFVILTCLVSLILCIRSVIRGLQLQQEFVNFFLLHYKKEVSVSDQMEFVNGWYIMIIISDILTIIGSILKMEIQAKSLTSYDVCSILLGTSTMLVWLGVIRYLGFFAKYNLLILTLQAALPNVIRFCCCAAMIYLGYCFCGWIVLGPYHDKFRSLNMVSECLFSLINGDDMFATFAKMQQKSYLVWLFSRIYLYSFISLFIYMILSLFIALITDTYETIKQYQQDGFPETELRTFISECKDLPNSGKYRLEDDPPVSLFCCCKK

Ion channel NompC = Ion channel NompC (Danio rerio, UniProt Q7T1G6); assay: Fluorescence counterscreen assay for TRPML3 agonists: dose response cell-based high-throughput screening assay to identify agonists of the transient receptor potential channel N1 (TRPN1). [Related pubchem assays: 1526, 1424, 1448 ]; type: functional

For `O=C(Nc1cc(C(F)(F)F)ccc1Cl)C1CCN(c2nnc(-n3cccc3)s2)CC1`, the IC50 [1] was > 100 µM (not active).

With `O=C(NC1CCCCCC1)c1ccc(CN2CCOCC2)cc1` the EC50 [2] was 889 nM (active), the EC50 [3] was < 100 nM (active) and the EC50 [4] was 17.5 µM (active). The EC50 [5] was 670 nM (active) and the EC50 [6] was 406 nM (active).

For `O=C(OCC(=O)N1CCN(C(=O)c2ccco2)CC1)c1cc(-c2ccco2)nc2ccccc12`, the IC50 (Genome polyprotein) was > 49.8 µM (not active), the IC50 (Bcl-2-like protein 10) was 12 µM (active) and the CC50 [7] was > 40 µM (active). For the same molecule, the IC50 [8] was 6.8 µM (active), the IC50 (Estrogen receptor beta [9]) was < 1.56 µM (active) and the IC50 (Estrogen receptor beta [10]) was > 50 µM (not active). For the same molecule, the IC50 (Bcl-2-like protein 1) was > 109 µM (not active), the IC50 [11] was 3.96 µM (active) and the IC50 (SUMO E1/E2) was 1.93 µM (active). For the same molecule, the IC50 [12] was 2.86 µM (active) and the IC50 [13] was 5.92 µM (active).

With `CC(C)CNc1nnnc2c1sc1nc(N3CCOCC3)c3c(c12)CC(C)(C)SC3` the EC50 [14] was 19.2 µM (active), the EC50 [15] was 35.1 µM (active) and the EC50 [16] was 14.3 µM (active). The IC50 [17] was > 100 µM (active) and the CC50 [18] was > 40 µM (active).

With `Cc1ccc2nc(NC(=O)CSCC(=O)OCC(=O)c3ccccc3)sc2c1` the EC50 [19] was 1.05 µM (active), the IC50 (Prothrombin) was 89.7 nM (active) and the IC50 [20] was 5.17 µM (active). For the same molecule, the AC50 [21] was 5.78 µM (active).

With `COc1ccc(C(C(=O)NC2CCCC2)N(Cc2ccccc2)C(=O)c2nsc(Cl)c2Cl)cc1` (stereo not drawn) the EC50 (Mucolipin-3) was > 29.9 µM (not active) and the EC50 (Ion channel NompC) was > 29.9 µM (not active).
